Measurements reported in patent US8741836B2, “Polypeptides” (Novo Nordisk A/S, priority 2011, dated 2014).
Where two headings read alike, the source gives them in different places. Starred links: 1 amine or outer side, 2 acyl side, 3 side chain; linkers in the order of their positions; H or OH if unused. Positions of bridges follow the written chain, without caps; N, C: chain ends. Residues, ends and D or L forms follow the SMILES beside them. Groups on a side chain read outwards from the residue. *: point of attachment. C18 diacid = O=C(O)CCCCCCCCCCCCCCCCC(=O)*; γGlu = O=C(O)[C@H](CCC(=O)[*:2])N[*:1]; AEEA = NCCOCCOCC(=O)O

Target: T1, human amylin 3(a) receptor (human calcitonin receptor + RAMP-3) (Homo sapiens, UniProt O60896+P30988)
T1 construct: expressed in transfected cells; CRE-luciferase reporter
T1 sequence (P30988 25-474): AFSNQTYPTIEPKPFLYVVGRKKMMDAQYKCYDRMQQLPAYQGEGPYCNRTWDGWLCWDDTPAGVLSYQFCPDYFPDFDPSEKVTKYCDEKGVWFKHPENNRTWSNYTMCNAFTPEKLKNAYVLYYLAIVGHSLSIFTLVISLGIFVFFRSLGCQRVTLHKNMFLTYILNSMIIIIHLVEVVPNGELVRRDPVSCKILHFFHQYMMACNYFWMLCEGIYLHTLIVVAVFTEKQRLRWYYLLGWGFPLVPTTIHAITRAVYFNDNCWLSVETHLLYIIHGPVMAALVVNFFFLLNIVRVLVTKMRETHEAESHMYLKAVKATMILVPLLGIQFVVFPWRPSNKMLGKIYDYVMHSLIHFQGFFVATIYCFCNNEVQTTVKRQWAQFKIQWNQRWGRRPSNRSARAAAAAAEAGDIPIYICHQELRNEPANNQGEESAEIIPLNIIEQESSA
T1 sequence (O60896 24-148 partner): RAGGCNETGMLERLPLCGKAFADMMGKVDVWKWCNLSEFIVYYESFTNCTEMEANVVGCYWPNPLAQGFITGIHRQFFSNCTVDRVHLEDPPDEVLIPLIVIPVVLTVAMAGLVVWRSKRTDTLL
Experiment: Assay (II)a functional assay, human amylin receptor (CRE luciferase reporter in BHK cells)
Format: cell-based
Text: 1. Luciferase Assay Outline
Activation of calcitonin and amylin (coexpression of calcitonin receptor and receptor activity modifying proteins (RAMP)) receptors lead to increased intracellular concentrations of cAMP. Consequently, transcription is activated by promoters containing multiple copies of the cAMP response element (CRE). It is thus possible to measure amylin activity by the use of a CRE luciferase reporter gene introduced into BHK cells also expressing calcitonin or amylin receptors.
A BHK570 cell line was stably transfected with the human calcitonin receptor and a CRE-responsive luciferase reporter gene. The cell line was further transfected with RAMP-3, using standard methods. This turns the calcitonin receptor into an amylin 3(a) receptor. Methotrexate, Neomycin, and Hygromycin are selection markers for luciferase, the calcitonin receptor, and RAMP-3, respectively.
To perform activity assays, BHK calcitonin (a) receptor- or amylin 3(a)-receptor/CRE-luc cells were seeded in white 96 well culture plates at a density of about 20.000 cells/well. […] After incubation overnight at 37° C. and 5% CO2, the growth medium was replaced by 50 μl/well assay medium (DMEM (without phenol red), Glutamax™, 10% FBS, and 10 mM Hepes, pH 7.4). Further, 50 μl/well of standard or sample in assay buffer were added. After 3 hours incubation at 37° C. and 5% CO2, the assay medium with standard or sample were removed and replaced by 100 μl/well PBS. Further, 100 μl/well LucLite™ was added. The plates were sealed and incubated at room temperature for 30 minutes. Finally, luminescence was measured on a TopCounter (Packard) in SPC (single photon counting) mode.

CC[C@H](C)[C@H](NC(=O)[C@@H]1CCCN1C(=O)CNC(=O)[C@H](Cc1ccccc1)NC(=O)[C@H](CC(N)=O)NC(=O)[C@H](CCCCNC(=O)COCCOCCNC(=O)COCCOCCNC(=O)CC[C@H](NC(=O)CCCCCCCCCCCCCCCCC(=O)O)C(=O)O)NC(=O)[C@H](CO)NC(=O)[C@H](CO)NC(=O)[C@H](Cc1c[nH]cn1)NC(=O)[C@H](Cc1c[nH]cn1)NC(=O)[C@H](CC(C)C)NC(=O)[C@H](Cc1ccccc1)NC(=O)[C@H](CCC(=O)O)NC(=O)[C@H](C)NC(=O)[C@H](CC(C)C)NC(=O)[C@H](CCCNC(=N)N)NC(=O)[C@H](CCC(N)=O)NC(=O)[C@@H](NC(=O)[C@H](C)NC(=O)[C@@H]1CSSC[C@H](NC(=O)[C@@H](N)CCCCN)C(=O)N[C@@H](CC(N)=O)C(=O)N[C@@H]([C@@H](C)O)C(=O)N[C@@H](C)C(=O)N[C@@H]([C@@H](C)O)C(=O)N1)[C@@H](C)O)C(=O)N[C@@H](CC(C)C)C(=O)N1CCC[C@H]1C(=O)N1CCC[C@H]1C(=O)N[C@H](C(=O)N[C@@H](CC(N)=O)C(=O)N[C@H](C(=O)NCC(=O)N[C@@H](CO)C(=O)N[C@@H](CCC(=O)O)C(=O)N[C@H](C(=O)N[C@@H](Cc1ccc(O)cc1)C(N)=O)[C@@H](C)O)C(C)C)[C@@H](C)O [Example 74, N-epsilon21-[2-(2-{2-[2-(2-{2-[(S)-4-Carboxy-4-(17-carboxyheptadecanoylamino)butyrylamino]ethoxy}ethoxy)acetylamino]ethoxy}ethoxy)acetyl]-[Glu14,His17,Lys21,Glu35]-pramlintide] (H-KCNTATCATQRLAEFLHHSSK([AEEA-AEEA-γGlu-C18 diacid])NFGPILPPTNVGSETY-NH2; disulfide 2-7 (inferred); N-terminus and C-terminus assumed)
184 pM: EC50 | EC50 (Table 4) | EC50 (Table 5) | EC50 (Table 6, human amylin receptor) | EC50 (Table 7, human amylin receptor) | EC50 (Table 8, human amylin receptor) | EC50 (Table 11, human amylin receptor)
